# Experimental data published in paper PMC5033074 (Nature chemical biology, 2016).
# Read-outs that look alike come from different tables or passages of the source.
# B1: human cyclin K residues 11-267 (domain or fragment, UniProt O75909 11-267, looked up)
# chain: SVTSANLDHTKPCWYWDKKDLAHTPSQLEGLDPATEARYRREGARFIFDVGTRLGLHYDTLATGIIYFHRFYMFHSFKQFPRYVTGACCLFLAGKVEETPKKCKDIIKTARSLLNDVQFGQFGDDPKEEVMVLERILLQTIKFDLQVEHPYQFLLKYAKQLKGDKNKIQKLVQMAWTFVNDSLCTTLSLQWEPEIIAVAVMYLAGRLCKFEIQEWTSKPMYRRWWEQFVQDVPVDVLEDICHQILDLYSQGKQQMPH
# What was measured:
# [1] = test system: Jurkat T-cell acute lymphoblastic leukemia cells; assay: Jurkat proliferation assay; assay type: cell-based, human; details: for antiproliferative activity in Jurkat cells: 72 hrs, CellTiter Glo
# [2] = test system: Pol II CTD Ser2 phosphorylation; assay: Pol II CTD phosphorylation immunoblot; assay type: cell-based, human; details: Jurkat cells, 6 hrs
# CDK7-cyclin H-MAT1 = CDK7-cyclin H-MAT1 (Homo sapiens, UniProt P50613); assay type: biochemical; details: compared with THZ531
# [3] = test system: steady-state mRNA levels in Jurkat cells; assay: gene expression analysis; assay type: cell-based, human; details: for effect on steady-state mRNA levels: 500 nM, 6h
# CDK9-cyclin T1 = CDK9-cyclin T1 (Homo sapiens, UniProt P50750); assay: radiometric in vitro kinase assay; assay type: biochemical; details: compared with THZ531
# [4] = test system: Pol II CTD Ser2 phosphorylation; details: cited from earlier work
# ERK1 = ERK1 (Homo sapiens, UniProt P27361); assay: kinase assay, control kinase; assay type: biochemical
# CDK12-cyclin K complexes = CDK12-cyclin K complexes (Homo sapiens, UniProt Q9NYV4); assay: target-engagement assay; assay type: cell-based; details: competition with lysate-introduced bioTHZ1
# CDK12- cyclin K complex = CDK12- cyclin K complex (Homo sapiens, UniProt Q9NYV4); assay: mass spectrometry of protein-inhibitor complex; assay type: binding; details: 17 µM complex, 25 µM compound, overnight at 4°C
# Jurkat cells = assay: Annexin V / propidium iodide flow cytometry; assay type: cell-based, human
# other 211 kinases = assay: KiNativ intracellular kinase profiling; details: ATP-desthiobiotin probe
# CDK13 = CDK13 (Homo sapiens, UniProt Q14004); assay: Ambit in vitro binding profiling
# [5] = test system: pSer2 Pol II occupancy in Jurkat cells; assay: pSer2 Pol II ChIP-seq; assay type: cell-based, human
# HAP1 cells = assay: HAP1 WT vs CDK12 C1039S proliferation assay; assay type: cell-based, human; details: 72 hours
# CDK13-cyclin K = CDK13-cyclin K (Homo sapiens, UniProt Q14004); assay: radiometric in vitro kinase assay; assay type: biochemical; details: relative to THZ531
# CDK12-cyclin K = CDK12-cyclin K (Homo sapiens, UniProt Q9NYV4); assay type: biochemical; details: relative to THZ531
# [6] = test system: CDK12-cyclin K, CDK13-cyclin K and CDK7-cyclin H complexes; details: 1 µM biotinylated probe
# [7] = molecular target: human CDK12 residues 715-1052 (human, UniProt Q9NYV4-1 715-1052, THZ531 covalently bound to Cys-1039; phosphorylated (site not stated)); assay: crystal structure
# Chain of CDK9-cyclin T1 (P50750 whole entry): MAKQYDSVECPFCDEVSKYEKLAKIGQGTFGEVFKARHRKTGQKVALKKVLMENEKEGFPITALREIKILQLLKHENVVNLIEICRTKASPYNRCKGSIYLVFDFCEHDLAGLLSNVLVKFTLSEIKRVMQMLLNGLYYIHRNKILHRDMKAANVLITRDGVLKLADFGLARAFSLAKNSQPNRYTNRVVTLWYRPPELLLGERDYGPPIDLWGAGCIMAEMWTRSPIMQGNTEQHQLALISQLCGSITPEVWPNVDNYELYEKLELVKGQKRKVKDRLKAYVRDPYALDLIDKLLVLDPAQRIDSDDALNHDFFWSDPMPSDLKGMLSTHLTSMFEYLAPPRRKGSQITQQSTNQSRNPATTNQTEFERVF
# Chain of CDK9-cyclin T1 (O60563 1-272 partner limits assumed): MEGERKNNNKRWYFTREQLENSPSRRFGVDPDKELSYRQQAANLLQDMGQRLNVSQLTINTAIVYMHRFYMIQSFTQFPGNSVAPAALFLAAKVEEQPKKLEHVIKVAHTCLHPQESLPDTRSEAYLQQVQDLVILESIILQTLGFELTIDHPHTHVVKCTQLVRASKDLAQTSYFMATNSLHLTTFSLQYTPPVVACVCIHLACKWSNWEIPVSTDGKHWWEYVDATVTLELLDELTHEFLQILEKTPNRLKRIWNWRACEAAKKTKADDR
# Chain of CDK13-cyclin K (Q14004 694-1039 limits assumed): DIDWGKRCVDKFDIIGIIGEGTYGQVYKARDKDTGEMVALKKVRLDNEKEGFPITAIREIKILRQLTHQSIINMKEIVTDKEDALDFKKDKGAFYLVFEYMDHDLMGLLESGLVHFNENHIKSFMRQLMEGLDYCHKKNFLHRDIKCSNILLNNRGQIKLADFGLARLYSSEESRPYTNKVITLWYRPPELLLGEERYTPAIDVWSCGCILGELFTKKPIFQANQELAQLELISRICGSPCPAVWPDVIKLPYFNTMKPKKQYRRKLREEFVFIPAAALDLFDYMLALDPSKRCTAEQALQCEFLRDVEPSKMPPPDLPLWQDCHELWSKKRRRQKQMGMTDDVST
# Chain of CDK13-cyclin K (O75909 1-267 partner limits assumed): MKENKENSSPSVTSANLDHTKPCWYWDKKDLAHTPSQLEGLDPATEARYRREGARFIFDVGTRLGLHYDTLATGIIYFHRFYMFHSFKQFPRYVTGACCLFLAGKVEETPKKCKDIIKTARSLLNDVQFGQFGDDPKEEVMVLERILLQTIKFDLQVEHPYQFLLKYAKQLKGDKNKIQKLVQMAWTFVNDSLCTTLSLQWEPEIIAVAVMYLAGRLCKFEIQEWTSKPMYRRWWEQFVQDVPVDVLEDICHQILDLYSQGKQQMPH
# Chain of CDK7-cyclin H-MAT1 (P50613 whole entry): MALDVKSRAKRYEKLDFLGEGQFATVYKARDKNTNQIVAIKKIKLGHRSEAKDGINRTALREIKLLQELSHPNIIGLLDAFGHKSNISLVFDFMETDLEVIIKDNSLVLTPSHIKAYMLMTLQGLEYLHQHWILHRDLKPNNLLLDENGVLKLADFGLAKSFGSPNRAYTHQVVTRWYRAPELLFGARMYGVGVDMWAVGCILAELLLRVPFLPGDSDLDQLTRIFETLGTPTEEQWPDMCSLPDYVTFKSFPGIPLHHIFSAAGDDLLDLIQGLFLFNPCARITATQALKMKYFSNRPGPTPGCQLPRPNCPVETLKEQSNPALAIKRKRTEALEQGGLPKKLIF
# Chain of CDK7-cyclin H-MAT1 (P51946 whole entry partner): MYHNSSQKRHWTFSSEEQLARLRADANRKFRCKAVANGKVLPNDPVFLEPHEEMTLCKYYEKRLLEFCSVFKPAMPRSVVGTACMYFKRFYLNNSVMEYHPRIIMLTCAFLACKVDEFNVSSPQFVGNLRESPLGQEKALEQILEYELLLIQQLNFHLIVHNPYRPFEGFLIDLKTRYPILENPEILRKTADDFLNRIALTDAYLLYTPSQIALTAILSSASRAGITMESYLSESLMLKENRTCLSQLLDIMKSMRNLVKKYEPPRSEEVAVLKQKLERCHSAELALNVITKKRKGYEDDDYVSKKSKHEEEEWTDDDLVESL
# Chain of CDK7-cyclin H-MAT1 (P51948 whole entry partner): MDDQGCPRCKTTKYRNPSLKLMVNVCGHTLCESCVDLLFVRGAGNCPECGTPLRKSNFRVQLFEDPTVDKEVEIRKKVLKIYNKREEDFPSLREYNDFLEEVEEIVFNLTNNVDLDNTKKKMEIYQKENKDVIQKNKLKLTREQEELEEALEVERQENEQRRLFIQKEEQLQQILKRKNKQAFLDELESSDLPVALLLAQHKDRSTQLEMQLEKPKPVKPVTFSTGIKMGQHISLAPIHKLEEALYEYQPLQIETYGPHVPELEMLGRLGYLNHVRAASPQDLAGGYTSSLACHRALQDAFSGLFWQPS
# Chain of CDK12-cyclin K (Q9NYV4 696-1082 limits assumed): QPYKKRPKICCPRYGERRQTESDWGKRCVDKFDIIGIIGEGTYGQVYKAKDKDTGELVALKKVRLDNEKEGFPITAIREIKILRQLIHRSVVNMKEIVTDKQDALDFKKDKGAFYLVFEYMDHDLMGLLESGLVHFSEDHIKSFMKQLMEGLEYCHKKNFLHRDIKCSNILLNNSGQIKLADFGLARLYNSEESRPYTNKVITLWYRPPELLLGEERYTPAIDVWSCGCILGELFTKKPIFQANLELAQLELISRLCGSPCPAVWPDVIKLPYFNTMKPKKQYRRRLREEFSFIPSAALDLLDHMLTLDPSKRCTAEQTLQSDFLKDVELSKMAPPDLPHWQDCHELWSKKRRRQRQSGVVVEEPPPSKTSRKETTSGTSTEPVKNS
# Chain of CDK12-cyclin K (O75909 1-267 partner limits assumed): as the sequence (O75909 1-267 partner limits assumed) above
# Chain of CDK12-cyclin K complexes (Q9NYV4 whole entry): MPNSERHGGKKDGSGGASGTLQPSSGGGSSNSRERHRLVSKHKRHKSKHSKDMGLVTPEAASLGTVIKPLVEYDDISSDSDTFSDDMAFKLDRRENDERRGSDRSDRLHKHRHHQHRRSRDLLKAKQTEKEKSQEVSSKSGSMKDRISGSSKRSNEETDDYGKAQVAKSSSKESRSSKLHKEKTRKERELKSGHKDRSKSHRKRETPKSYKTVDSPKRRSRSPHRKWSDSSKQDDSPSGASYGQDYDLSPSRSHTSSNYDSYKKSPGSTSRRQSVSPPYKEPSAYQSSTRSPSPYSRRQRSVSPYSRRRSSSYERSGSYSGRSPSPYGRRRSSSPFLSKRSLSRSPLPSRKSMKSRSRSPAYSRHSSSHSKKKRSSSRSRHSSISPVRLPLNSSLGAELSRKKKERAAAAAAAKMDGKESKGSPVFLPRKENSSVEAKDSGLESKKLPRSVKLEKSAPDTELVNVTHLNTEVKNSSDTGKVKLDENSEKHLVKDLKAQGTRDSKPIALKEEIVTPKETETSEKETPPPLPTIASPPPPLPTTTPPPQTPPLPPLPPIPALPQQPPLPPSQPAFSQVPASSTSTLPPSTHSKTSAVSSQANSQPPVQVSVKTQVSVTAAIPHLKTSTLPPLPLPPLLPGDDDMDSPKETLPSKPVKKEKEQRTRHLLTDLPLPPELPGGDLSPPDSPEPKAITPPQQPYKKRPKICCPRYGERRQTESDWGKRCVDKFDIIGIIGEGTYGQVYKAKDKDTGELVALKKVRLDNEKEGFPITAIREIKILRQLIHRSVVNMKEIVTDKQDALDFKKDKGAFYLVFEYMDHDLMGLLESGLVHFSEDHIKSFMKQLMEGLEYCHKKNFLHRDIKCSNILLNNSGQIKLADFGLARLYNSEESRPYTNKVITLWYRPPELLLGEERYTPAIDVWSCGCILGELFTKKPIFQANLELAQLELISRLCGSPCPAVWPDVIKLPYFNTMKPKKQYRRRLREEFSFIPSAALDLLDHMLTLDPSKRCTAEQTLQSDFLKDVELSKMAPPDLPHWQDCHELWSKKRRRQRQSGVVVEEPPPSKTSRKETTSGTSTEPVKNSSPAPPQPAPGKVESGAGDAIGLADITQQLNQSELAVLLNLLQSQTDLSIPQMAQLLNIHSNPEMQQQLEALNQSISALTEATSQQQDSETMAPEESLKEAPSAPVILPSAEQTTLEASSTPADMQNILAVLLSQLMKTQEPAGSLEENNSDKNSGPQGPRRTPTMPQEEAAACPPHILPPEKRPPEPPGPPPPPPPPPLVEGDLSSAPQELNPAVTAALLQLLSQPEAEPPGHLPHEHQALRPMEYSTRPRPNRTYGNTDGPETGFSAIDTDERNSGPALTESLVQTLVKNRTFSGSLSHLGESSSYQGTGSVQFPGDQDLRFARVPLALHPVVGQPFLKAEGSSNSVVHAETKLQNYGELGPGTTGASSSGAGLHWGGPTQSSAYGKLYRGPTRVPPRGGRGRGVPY
# Chain of CDK12-cyclin K complexes (O75909 whole entry partner): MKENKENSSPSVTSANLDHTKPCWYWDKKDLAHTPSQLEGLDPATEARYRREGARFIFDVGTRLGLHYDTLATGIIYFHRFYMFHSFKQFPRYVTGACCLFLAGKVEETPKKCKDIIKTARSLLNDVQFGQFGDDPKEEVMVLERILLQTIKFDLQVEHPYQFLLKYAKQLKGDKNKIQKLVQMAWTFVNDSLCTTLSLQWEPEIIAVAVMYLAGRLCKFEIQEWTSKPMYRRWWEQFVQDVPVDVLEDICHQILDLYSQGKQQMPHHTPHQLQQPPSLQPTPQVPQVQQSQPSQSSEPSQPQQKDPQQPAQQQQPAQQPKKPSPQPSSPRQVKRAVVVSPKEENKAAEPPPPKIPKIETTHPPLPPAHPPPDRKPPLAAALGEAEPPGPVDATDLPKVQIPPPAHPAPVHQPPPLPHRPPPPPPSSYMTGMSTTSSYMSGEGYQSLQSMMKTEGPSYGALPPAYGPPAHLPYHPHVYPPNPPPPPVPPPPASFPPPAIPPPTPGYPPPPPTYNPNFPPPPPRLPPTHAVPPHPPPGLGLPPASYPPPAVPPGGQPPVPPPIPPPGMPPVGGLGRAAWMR
molecule,measurement,setting,value
"CN(C)C/C=C/C(=O)Nc1ccc(C(=O)N2CCC[C@H](Nc3ncc(Cl)c(-c4c[nH]c5ccccc45)n3)C2)cc1 [THZ532, (S,E)-N-(4-(3-((5-chloro-4-(1H-indol-3-yl)pyrimidin-2-yl)amino)piperidine-1-carbonyl)phenyl)-4-(dimethylamino)but-2-enamide]",antiproliferative activity in Jurkat cells,[1],minimal antiproliferative activity
same,effect on Pol II CTD phosphorylation,[2],decreased neither Ser2 phosphorylation
same,inhibition activity on CDK7,CDK7-cyclin H-MAT1,similarly–low–inhibition activity
same,effect on steady-state mRNA levels,[3],decreased neither Ser2 phosphorylation nor steady-state mRNA levels
same,inhibition activity on CDK9,CDK9-cyclin T1,similarly–low–inhibition activity
CN(C)C/C=C/C(=O)Nc1ccc(C(=O)Nc2cccc(Nc3ncc(Cl)c(-c4c[nH]c5ccccc45)n3)c2)cc1 [THZ1],effect on Pol II CTD phosphorylation,[4],complete loss of Pol II CTD phosphorylation
"CN(C)C/C=C/C(=O)Nc1ccc(C(=O)N2CCC[C@@H](Nc3ncc(Cl)c(-c4c[nH]c5ccccc45)n3)C2)cc1 [THZ531, (R,E)-N-(4-(3-((5-chloro-4-(1H-indol-3-yl)pyrimidin-2-yl)amino)piperidine-1-carbonyl)phenyl)-4-(dimethylamino)but-2-enamide]",inhibitory effect on ERK1,ERK1,no appreciable inhibitory effect
same,binding to intracellular CDK12-cyclin K vs CDK7-cyclin H,CDK12-cyclin K complexes,binds intracellular CDK12-cyclin K complexes with higher affinity than CDK7-cyclin H complexes
same,IC50,"[1]; Homo sapiens, Jurkat, 72 h, read-out: IC50 Jurkat cell proliferation",50 nM
same,covalent binding to CDK12-cyclin K,CDK12- cyclin K complex,Near complete covalent binding
same,effect on Pol II CTD phosphorylation,[2],selectively reduced Ser2 phosphorylation levels without appreciable effect on CTD pSer5/pSer7 levels
same,percentage of apoptotic cells over DMSO control,"Jurkat cells; 50 nM, time course of the experiment",no increase in the percentage of apoptotic cells
same,annexin V-positively stained cells,"Jurkat cells; higher doses (above 50 nM), by 72 hrs",30–40%
same,labeling of the other 211 kinases (not CDK12 and 13),other 211 kinases,≤ 55%
same,Ambit profiling score of CDK13,CDK13,among the top scoring kinases
same,"expression of core DDR genes BRCA1, FANCF, ERCC4",[3]; 50 nM,substantial loss of expression
same,pSer2 ChIP-seq signal,[5]; 50 nM,did not appreciably change pSer2 ChIP-seq signal
same,pSer2 ChIP-seq signal,[5]; 500 nM,dramatic decrease in 3’ end –associated pSer2 ChIP-seq signal
same,effect of CDK12 C1039S substitution on antiproliferative effect,HAP1 cells,partial restoration of cellular proliferation
"CN(C)CCCC(=O)Nc1ccc(C(=O)N2CCC[C@@H](Nc3ncc(Cl)c(-c4c[nH]c5ccccc45)n3)C2)cc1 [THZ531R, (R)-N-(4-(3-((5-chloro-4-(1H-indol-3-yl)pyrimidin-2-yl)amino)piperidine-1-carbonyl)phenyl)-4-(dimethylamino)butanamide]",fold less active on CDK13 than THZ531,CDK13-cyclin K,50–100 fold
same,fold less active on CDK13 than THZ531,CDK13-cyclin K; listed as reversible analog,more than 100 fold
same,antiproliferative activity in Jurkat cells,[1],minimal antiproliferative activity
same,fold less active on CDK12 than THZ531,CDK12-cyclin K,50–100 fold
same,fold less active on CDK12 than THZ531,CDK12-cyclin K; listed as reversible analog,more than 100 fold
same,effect on Pol II CTD phosphorylation,[2],decreased neither Ser2 phosphorylation
same,inhibition activity on CDK7,CDK7-cyclin H-MAT1,similarly–low–inhibition activity
same,effect on steady-state mRNA levels,[3],decreased neither Ser2 phosphorylation nor steady-state mRNA levels
same,inhibition activity on CDK9,CDK9-cyclin T1,similarly–low–inhibition activity
"CN(C/C=C/C(=O)Nc1ccc(C(=O)Nc2cccc(Nc3ncc(Cl)c(-c4c[nH]c5ccccc45)n3)c2)cc1)CCCNC(=O)NCCOCCOCCOCCNC(=O)CCCC[C@@H]1SC[C@@H]2NC(=O)N[C@@H]21 [bioTHZ1, reference compound]",complexes pulled down,[6],"pulls down CDK7, CDK12, and 13 complexes"
"CC1NC(=O)NC1CCCCCC(=O)NCCOCCOCCOCCNC(=O)CCN(C)C/C=C/C(=O)Nc1ccc(C(=O)N2CCC[C@@H](Nc3ncc(Cl)c(-c4c[nH]c5ccccc45)n3)C2)cc1 (stereo partly drawn) [bioTHZ531, N-((E)-20-((4-((R)-3-((5-chloro-4-(1H-indol-3-yl)pyrimidin-2-yl)amino)piperidine-1-carbonyl)phenyl)amino)-16-methyl-13,20-dioxo-3,6,9-trioxa-12,16-diazaicos-18-en-1-yl)-6-(5-methyl-2-oxoimidazolidin-4-yl)hexanamide]",complexes pulled down,[6],"pulls down CDK12-cyclin K and CDK13-cyclin K complexes, but not CDK7-cyclin H complexes"
B1,binding result,[7],binds
